The source of these data is patent US20070219146A1, “Synergistic Pharmaceutical And/Or Neutraceutical Flavanoid Composition For Management Of Diabetes Mellitus” (priority 2006, published 2007).

The subject of experiment [1] is Alloxan diabetic mice. As to the kind of experiment: Acute study of Cocoa Flavanoid, blood sugar level in Alloxan diabetic mice. The format is in vivo, Swiss Albino mice (male). The following applies: Glyburide 10 mg/kg; for Summary in percentage (Blood sugar level): reduction versus Normal. How it is done:
Swiss Albino mice (male) in the weight range 25 to 30 grams were studied for acute affect. They were made diabetic by the admnistration of Alloxan (with admnistration of 70 mg/kg Alloxan and in 48 hours the animals develop diabetes). As the mice became diabetic and the blood sugar was above […], they were grouped into […] of six each. Each group was administered by the test drug at 25 mg/kg, 50 mg/kg 100 mg/kg and 250 mg/kg body weight. One group was administered a positive control drug glyburide at 10 mg/kg of body weight. Blood samples were drawn at 2 hour, 4 hour, 6 hour and 24 hour intervals for all mice. The blood sugar pattern is studied. It has been found out that the best results are obtained for a dose of 50 mg/kg body weight at 2 hours after administration and it increases up to the 6th hour. Good result is obtained for 100 mg/kg drug. […] The effect of 50 mg/kg compared very well with the effect of positive control drug glyburide at 10 mg/kg body weight.
This is an interesting finding that the hypoglycemic effect is best for a dose ranging between 50 mg to 100 mg/kg of body weight.

Experiment [2] concerns Alloxan diabetic mice. Put plainly: Sub acute study (28 days) of Cocoa Flavanoid, blood sugar level in Alloxan diabetic mice. The format is in vivo, Swiss Albino mice (Male). The following applies: Glyburide 10 mg/kg; for Summary in percentage (Blood sugar level): reduction versus Normal. The procedure: Swiss Albino mice (Male) in the weight range of 25 to 30 gram were studied for sub acute effect for 28 days. The mice were made diabetic by admnistration of Alloxan. As the mice became diabetic and the blood sugar was above […] they were chosen for the study. 4 groups were made. One group was given 50 mg/kg, 2nd group 100 mg/kg, 3rd group 250 mg/kg and the 4th group positive control glyburide at 10 mg/kg. Treatment was given for 28 days.
A very interesting observation was made that the best effect was produced by the dose of 100 mg/kg body weight. The effect started by 7th day and increased up to 28th day. […] Unlike acute study, the sub acute study has confirmed that 100 mg/kg given the most optimal blood sugar reduction. This effect was sustained after the removal of treatment on 35th day.

Take `COc1ccc(Cl)cc1C(=O)NCCc1ccc(S(=O)(=O)NC(=O)NC2CCCCC2)cc1` [Glyburide]: the “Blood sugar level (reading)” value amounted to 317.50 with Alloxan diabetic mice [1] (2 hour); 266.16 in the experiment with Alloxan diabetic mice [1] (4 hour); 149.50 with Alloxan diabetic mice [1] (6 hour); 228.66 in the experiment on Alloxan diabetic mice [1] (24 hour); 374.33 in the experiment on Alloxan diabetic mice [1] (Normal (before administration)); 396.09 with Alloxan diabetic mice [2] (Normal (before treatment)). In addition, the “Blood sugar level (reading)” value in the experiment with Alloxan diabetic mice [2] (day 7) is recorded as 323.46; with Alloxan diabetic mice [2] (day 14), 265.46; with Alloxan diabetic mice [2] (day 21), 170.82; in the experiment on Alloxan diabetic mice [2] (day 28) it was 137.90. In addition, the “Summary in percentage (Blood sugar level)” value is listed as 15% in the experiment with Alloxan diabetic mice [1] (2 hour); 29% in the experiment with Alloxan diabetic mice [1] (4 hour); 60% in the experiment with Alloxan diabetic mice [1] (6 hour); 39% with Alloxan diabetic mice [1] (24 hour); 18% in the experiment with Alloxan diabetic mice [2] (day 7); 33% in the experiment on Alloxan diabetic mice [2] (day 14). Further, the “Summary in percentage (Blood sugar level)” value is recorded as 57% with Alloxan diabetic mice [2] (day 21) and 65% in the experiment on Alloxan diabetic mice [2] (day 28).
